We go through one compound from patent publication US20230093684A1, “STIMULI - OR BIO- RESPONSIVE COPOLYMERS, THE POLYMERSOMES COMPRISING THE SAME AND THEIR USE IN DRUG DELIVERY” (CENTRE NATIONAL DE LA RECHERCHE SCIENTIFIQUE, priority 2019, published 2023).

This data set can be described thus: Glutathione (GSH)-triggered doxorubicin release followed by fluorescence. The class given is physicochemical. The settings on record: Dox solution in brine 0.9% + GSH 10 mM. The procedure:
Release of the encapsulated compound: The amount of released dye was followed at RT by fluorescence spectroscopy (Hitachi F7000 spectrometer). […] The λex excitation wavelength was set at 480 nm and the emission λem spectra were recorded from 490 to 720 nm. The instrument was used in scan mode, with excitation slit set to 5 nm and emission slit set to 5 nm.
The liberation of doxorubicin was followed by monitoring the fluorescence. Fluorescence spectra were collected by excitation at λex=470 nm wavelength and reading at λem=600 nm. In order to quantify the encapsulated drug, a method for the quantitative liberation was needed. Different methods, such as solvolysis, photolysis, addition of redox agents (sodium dithionite, mercaptoethanol, sodium thiosulfate, glutathione) were tested and are discussed as follows.
In parallel, Quino-Ps-DOX (50 μL) was treated with the […] glutathione (GSH) in its reduced form, 1 μL at c=10 mM in brine (0.9% (v/w). The concentration of the GSH was set to 10 mM in order to be compatible with the highest intracellular level (FIG. 5).
The amount of the liberated drug was quantified by fluorescence (λex=470 nm and λem=600 nm), by using a calibration curve (FIG. 6) ([…] (R^2=0.9911)). […]

As to `COc1cccc2c1C(=O)c1c(O)c3c(c(O)c1C2=O)C[C@@](O)(C(=O)CO)C[C@@H]3O[C@H]1C[C@H](N)[C@H](O)[C@H](C)O1` [doxorubicin], the “fluorescence intensity of free doxorubicin treated with GSH (stability control)” value was “no change in the fluorescence intensity”.
